For one series, the target named is T1, recombinant human FAP (Homo sapiens, UniProt Q12884).
T1 construct: purchased Biolegend
T1 sequence (Q12884 1-760): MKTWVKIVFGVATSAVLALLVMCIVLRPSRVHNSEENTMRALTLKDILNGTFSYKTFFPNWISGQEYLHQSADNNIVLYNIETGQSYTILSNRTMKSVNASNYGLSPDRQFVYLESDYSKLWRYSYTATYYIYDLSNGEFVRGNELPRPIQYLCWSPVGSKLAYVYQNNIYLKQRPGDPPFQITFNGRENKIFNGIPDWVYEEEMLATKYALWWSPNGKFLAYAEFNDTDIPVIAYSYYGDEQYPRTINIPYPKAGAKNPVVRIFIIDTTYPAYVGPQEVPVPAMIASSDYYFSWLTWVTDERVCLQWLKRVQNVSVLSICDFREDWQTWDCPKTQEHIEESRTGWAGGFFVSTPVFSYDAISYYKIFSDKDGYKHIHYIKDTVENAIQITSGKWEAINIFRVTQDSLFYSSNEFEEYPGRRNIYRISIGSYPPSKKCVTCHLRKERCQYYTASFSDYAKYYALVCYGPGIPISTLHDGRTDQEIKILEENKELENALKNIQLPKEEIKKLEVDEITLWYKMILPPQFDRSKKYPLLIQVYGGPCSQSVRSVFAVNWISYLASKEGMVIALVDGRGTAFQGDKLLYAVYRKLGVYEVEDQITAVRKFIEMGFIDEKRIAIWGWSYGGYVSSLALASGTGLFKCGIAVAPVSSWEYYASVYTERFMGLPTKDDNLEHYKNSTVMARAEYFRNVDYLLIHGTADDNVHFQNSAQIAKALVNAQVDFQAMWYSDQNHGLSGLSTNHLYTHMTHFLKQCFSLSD
The experiment in a line: In vitro FAP fluorescence enzyme-inhibition assay (Suc-Gly-Pro-AMC substrate). Type of series: biochemical. The note with it: n = 3. As to the method:
The binding affinities of Ga-AV01017, Ga-AV01030, Ga-AV01038, Ga-HTK03041, and Ga-FAPI-04 to human FAP were measured by an enzyme-inhibition assay using Suc-Gly-Pro-AMC as the FAP substrate. The human FAP enzymatic activity on the substrate was inhibited by Ga-complexed standards in a dose-dependent manner (Figure 3B).
The half maximal inhibitory concentration (IC50) values of the tested compounds for FAP were measured by in vitro enzymatic assay. The recombinant human FAP (Biolegend; 0.2 µg/mL, 50 µL) was added into a costar 96-well plate. PBS and varied concentrations (0.2 pM to 2 µM) of tested nonradioactive Ga-complexed standards were added to each well (in duplicate) containing the recombinant human FAP. After being incubated for 30 min at 37 °C, 50 µL of Suc-Gly-Pro-AMC (2 µM, Bachem) was added to each well. The fluorescent signals were acquired at 15, 30, 45, and 60 min using a FlexStation 3 Multi-Mode Microplate Reader with excitation at 380 nm and emission at 460 nm. The IC50(FAP) was calculated using a “nonlinear fit model” built-in model in GraphPad Prism 7.02 software

The target in a further series is T2, PSMA (Homo sapiens, UniProt Q04609).
T2 construct: endogenous in cells; host or cells: LNCaP cells (ATCC via Cedarlane)
The experiment in a line: In vitro PSMA competition binding assay ([^18F]DCFPyL displacement on LNCaP cells). The settings on record: radioligand [^18F]DCFPyL, n = 3. The protocol: The binding affinities of Ga-AV01017, Ga-AV01030, Ga-AV01038, Ga-HTK03041, and Ga-FAPI-04 to PSMA were measured by a cell-based binding assay using PSMA-expressing LNCaP prostate cancer cells. The nonradioactive Ga-complexed standards, except Ga-FAPI-04, inhibited the binding of [^18F]DCFPyL to LNCaP cells in a dose-dependent manner (Figure 3A).
The PSMA binding assays were conducted following previously published procedures using LNCaP cells and [^18F]DCFPyL as the radioligand [34, 42, 43]. Data analyses of IC50 were performed using the nonlinear regression algorithm of GraphPad Prism 7 (San Diego, CA, USA) software.

Series [1] has as its system PSMA-expressing LNCaP tumor xenografts. Nature of the series: Ex vivo biodistribution in LNCaP tumor-bearing mice. The note with it: 1 h post injection, range over LNCaP and HEK293T:hFAP tumor-bearing mice. As to the method:
Biodistribution studies were conducted at 1 h post injection with ^68Ga-labeled AV01017, AV01030, AV01038, HTK03041, and FAPI-04 in LNCaP tumor-bearing mice (Figure 5 and Table S4, Supplementary Materials). The results were consistent with the observation from their PET images. Tumor uptake values for [^68Ga]Ga-AV01017, [^68Ga]Ga-AV01030, [^68Ga]Ga-AV01038, [^68Ga]Ga-HTK03041, and [^68Ga]Ga-FAPI-04 were 4.38 ± 0.55, 5.17 ± 0.51, 4.25 ± 0.86, 23.1 ± 6.11, and 3.15 ± 1.43 %ID/g, respectively. […] Although not statistically significant, the bispecific tracers with a longer linker tend to have a higher blood uptake value (9.24 ± 1.55 %ID/g for [^68Ga]Ga-AV01017; 7.07 ± 0.31%ID/g for [^68Ga]Ga-AV01038; 5.75 ± 0.59 %ID/g for [^68Ga]Ga-AV01030) and a lower tumor-to-blood ratio (0.48 ± 0.11 for [^68Ga]Ga-AV01017; 0.60 ± 0.13 for [^68Ga]Ga-AV01038; 0.89 ± 0.03 for [^68Ga]Ga-AV01030).
(§1) Imaging and biodistribution studies were performed using male NOD.Cg-Rag1tm1Mom Il2rgtm1Wjl/SzJ (NRG) mice following previously published procedures. The experiments were conducted according to the guidelines established by the Canadian Council on Animal Care and approved by Animal Ethics Committee of the University of British Columbia. The mice were briefly sedated by inhalation of 2.5% isoflurane in oxygen, and 100 µL LNCaP (2 × 10^5 cells) or HEK293T:hFAP (8.5 × 10^6 cells) cells were inoculated subcutaneously behind the left shoulder. When the tumor grew to 5–8 mm in diameter over 3–4 weeks and 4–5 weeks for HEK293T:hFAP and LNCaP tumors, respectively, the mice were used for PET/CT imaging and biodistribution studies.
(§2) For biodistribution studies, the mice were injected with the radiotracer (~2–4 MBq) as described above. At 1 h post injection, the mice were euthanized by CO2 inhalation. Blood was withdrawn by cardiac puncture, and organs/tissues of interest were collected, weighed, and counted using a Perkin Elmer (Waltham, MA, USA) Wizard2 2480 automatic gamma counter.

Series [2] relates to FAP-expressing HEK293T:hFAP tumor xenografts. Nature of the series: Ex vivo biodistribution in HEK293T:hFAP tumor-bearing mice. The note with it: 1 h post injection, mean ± SD, n = 4. As to the method:
Biodistribution studies were also conducted at 1 h post injection with [^68Ga]Ga-AV01017, [^68Ga]Ga-AV01030, [^68Ga]Ga-AV01038, [^68Ga]Ga-HTK03041, and [^68Ga]Ga-FAPI-04 in HEK293T:hFAP tumor-bearing mice (Figure 6 and Table S5, Supplementary Materials). Tumor uptake values for [^68Ga]Ga-AV01017, [^68Ga]Ga-AV01030, [^68Ga]Ga-AV01038, [^68Ga]Ga-HTK03041, and [^68Ga]Ga-FAPI-04 were 2.99 ± 0.37, 3.69 ± 0.81, 3.64 ± 0.83, 0.62 ± 0.19, and 12.5 ± 2.00 %ID/g, respectively. There was a very low tumor uptake in mice injected with [^68Ga]Ga-HTK03041, showing very minimal FAP expression in this tumor model. The uptake levels of these tracers on the major organs and tissues are consistent with the trends observed in the LNCaP tumor-baring mice (Figure 5 and Supplemental Table S4).
as §1, §2

In series [3] the test system is PSMA-expressing LNCaP tumor xenografts. Further details: method as in earlier work. The note with it: LNCaP tumor-bearing mice, 1 h post injection, reported previously, ref 4 (supplement); cited from earlier work.

Where only a bound is given, the exact number is not on record here.

The IC50 is the concentration that gives 50% inhibition.

T2 sequence (Q04609 whole entry): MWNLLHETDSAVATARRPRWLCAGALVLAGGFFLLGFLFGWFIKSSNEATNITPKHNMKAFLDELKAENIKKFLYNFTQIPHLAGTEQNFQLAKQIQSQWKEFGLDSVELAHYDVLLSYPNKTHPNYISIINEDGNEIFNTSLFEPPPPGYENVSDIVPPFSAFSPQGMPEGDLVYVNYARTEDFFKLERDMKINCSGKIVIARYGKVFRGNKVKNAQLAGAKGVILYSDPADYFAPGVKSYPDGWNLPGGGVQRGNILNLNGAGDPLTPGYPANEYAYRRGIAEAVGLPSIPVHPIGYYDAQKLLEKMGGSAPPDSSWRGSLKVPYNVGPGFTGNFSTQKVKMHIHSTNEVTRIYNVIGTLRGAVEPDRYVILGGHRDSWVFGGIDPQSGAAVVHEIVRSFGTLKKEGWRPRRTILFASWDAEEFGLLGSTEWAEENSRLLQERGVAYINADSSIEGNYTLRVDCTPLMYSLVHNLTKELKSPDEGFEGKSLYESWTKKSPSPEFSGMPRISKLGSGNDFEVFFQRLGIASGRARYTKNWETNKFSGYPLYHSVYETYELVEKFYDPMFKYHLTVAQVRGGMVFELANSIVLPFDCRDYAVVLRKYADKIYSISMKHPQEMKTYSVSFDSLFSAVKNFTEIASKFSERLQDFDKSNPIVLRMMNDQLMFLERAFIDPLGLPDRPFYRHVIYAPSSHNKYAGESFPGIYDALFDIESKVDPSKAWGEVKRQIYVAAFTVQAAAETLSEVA

Turning to `N#C[C@@H]1CC(F)(F)CN1C(=O)CNC(=O)c1ccnc2ccc(OCc3cn(CC(=O)N[C@@H](CCCCNC(=O)CN4CCN(CC(=O)[O-])CCN(CC(=O)[O-])CCN(CC(=O)[O-])CC4)C(=O)NCC(=O)NC[C@H]4CC[C@H](C(=O)N[C@@H](Cc5c6ccccc6cc6ccccc56)C(=O)NCCCC[C@H](NC(=O)N[C@@H](CCC(=O)O)C(=O)O)C(=O)O)CC4)nn3)cc12.[Ga+3]` [Ga-AV01038], the values for the IC50 at recombinant human FAP and on PSMA were 2.31 ± 0.13 nM and 29.4 ± 25.2 nM, respectively. Moreover, the “Blood uptake values (range over both tumor models)” value in series [1] is recorded as 7.07–7.45 %ID/g.
For the molecule `O=C([O-])CN1CCN(CC(=O)[O-])CCN(CC(=O)NC[C@H]2CC[C@H](C(=O)N[C@@H](Cc3c4ccccc4cc4ccccc34)C(=O)NCCCC[C@H](NC(=O)N[C@@H](CCC(=O)O)C(=O)O)C(=O)O)CC2)CCN(CC(=O)[O-])CC1.[Ga+3]` [Ga-HTK03041, reference compound], the IC50 at recombinant human FAP was 2010 ± 585 nM; at PSMA, 0.76 ± 0.12 nM.
`N#C[C@@H]1CC(F)(F)CN1C(=O)CNC(=O)c1ccnc2ccc(OCCCN3CCN(C(=O)CN4CCN(CC(=O)[O-])CCN(CC(=O)[O-])CCN(CC(=O)[O-])CC4)CC3)cc12.[Ga+3]` [Ga-FAPI-04, reference compound] had an IC50 at PSMA greater than 1000 nM.
Consider `O=C([O-])CN1CCN(CC(=O)[O-])CCN(CC(=O)NC[C@H]2CC[C@H](C(=O)N[C@@H](Cc3c4ccccc4cc4ccccc34)C(=O)NCCCC[C@H](NC(=O)N[C@@H](CCC(=O)O)C(=O)O)C(=O)O)CC2)CCN(CC(=O)[O-])CC1.[68Ga+3]` [[^68Ga]Ga-HTK03041, reference compound], for which, in series [2], the Adrenal glands uptake turned out to be 4.18 ± 0.48 %ID/g, the Blood uptake is on record as 0.71 ± 0.07 %ID/g, the Bone uptake is listed as 0.42 ± 0.11 %ID/g and the Brain uptake is listed as 0.03 ± 0.00 %ID/g. Also, in series [2], the Fat uptake is reported as 0.55 ± 0.12 %ID/g, the “HEK293T:hFAP tumor uptake” value was 0.62 ± 0.19 %ID/g, the Heart uptake is 0.98 ± 0.07 %ID/g and the Kidneys uptake turned out to be 68.4 ± 19.2 %ID/g. Moreover, in series [2], the Lacrimal gland uptake is reported as 0.25 ± 0.33 %ID/g, the “Large Intestine uptake” value is 0.43 ± 0.04 %ID/g, the Liver uptake is given as 0.72 ± 0.06 %ID/g and the Lungs uptake was 2.43 ± 0.08 %ID/g. In series [2], this molecule returned a Muscle uptake of 0.47 ± 0.03 %ID/g, a Pancreas uptake of 0.71 ± 0.07 %ID/g, a Salivary glands uptake of 2.29 ± 0.16 %ID/g and a Seminal vesicle uptake of 0.32 ± 0.03 %ID/g. Besides, in series [2], the “Small Intestine uptake” value is on record as 0.71 ± 0.01 %ID/g, the Spleen uptake amounted to 8.09 ± 2.37 %ID/g, the Stomach uptake is recorded as 0.22 ± 0.04 %ID/g and the Testes uptake stood at 0.60 ± 0.41 %ID/g. In addition, in series [2], the Thyroid uptake came to 1.38 ± 0.10 %ID/g, the Tumor/blood uptake ratio was found to be 0.83 ± 0.54, the Tumor/bone uptake ratio was 1.39 ± 0.58 and the Tumor/kidney uptake ratio was 0.01 ± 0.01. Also, in series [2], the Tumor/muscle uptake ratio was 1.22 ± 0.73. In series [3], the Blood uptake is 1.43 ± 0.30 %ID/g, the Bone uptake is recorded as 1.29 ± 0.45 %ID/g, the Brain uptake is reported as 0.10 ± 0.05 %ID/g and the Fat uptake is 2.06 ± 0.59 %ID/g. For the same molecule, in series [3], the Heart uptake is 1.82 ± 0.62 %ID/g, the Kidneys uptake was 170 ± 26.4 %ID/g, the LNCaP tumor uptake was 23.1 ± 6.11 %ID/g and the Liver uptake is given as 1.38 ± 0.25 %ID/g. Further, in series [3], the Muscle uptake was 0.75 ± 0.09 %ID/g, the Pancreas uptake is reported as 1.47 ± 0.16 %ID/g, the “Small Intestine uptake” value is 1.14 ± 0.18 %ID/g and the Spleen uptake was 8.95 ± 3.22 %ID/g. Also, in series [3], the Stomach uptake is given as 0.41 ± 0.11 %ID/g, the Testes uptake is on record as 1.34 ± 0.22 %ID/g, the Thyroid uptake is given as 2.48 ± 0.44 %ID/g and the Tumor/blood uptake ratio is listed as 17.3 ± 7.24. For the same molecule, in series [3], the Tumor/bone uptake ratio is given as 20.1 ± 9.48, the Tumor/kidney uptake ratio is 0.14 ± 0.04 and the Tumor/muscle uptake ratio was 31.6 ± 12.1.
`N#C[C@@H]1CC(F)(F)CN1C(=O)CNC(=O)c1ccnc2ccc(OCCCc3cn(CC(=O)N[C@@H](CCCCNC(=O)CN4CCN(CC(=O)[O-])CCN(CC(=O)[O-])CCN(CC(=O)[O-])CC4)C(=O)NCC(=O)NC[C@H]4CC[C@H](C(=O)N[C@@H](Cc5c6ccccc6cc6ccccc56)C(=O)NCCCC[C@H](NC(=O)N[C@@H](CCC(=O)O)C(=O)O)C(=O)O)CC4)nn3)cc12.[Ga+3]` [Ga-AV01017]: the IC50 at recombinant human FAP was 1.25 ± 0.39 nM; on PSMA it was 25.2 ± 10.7 nM. The “Blood uptake values (range over both tumor models)” value in series [1] is reported as 9.24–11.9 %ID/g.

Values taken from publication PMC9921851, “Synthesis and Preclinical Evaluation of Three Novel ^68Ga-Labeled Bispecific PSMA/FAP-Targeting Tracers for Prostate Cancer Imaging” (Molecules, 2023).
